Measurements: patent US20150196500A1, “Treatment of Mitochondria-Related Diseases and Improvement of Age-Related Metabolic Deficits” (PHILERA NEW ZEALAND LIMITED, priority 2005, published 2015)
“Also recorded” adds a separate entry of the source. Where two headings read alike, the source gives them in different places.

Tests used:
[1] = tested on: mitochondria isolated from hearts of obese ZDF rats and lean littermates; type: cell-based, rat
[2] = tested on: cytochrome c release from mitochondria isolated from lean (non-diabetic) ZDF rats; experiment: Cytochrome c release from isolated mitochondria, Western blot; type: cell-based, rat; details: for cytochrome c release into supernatant: 5 mM alone, 30 min incubation
[3] = tested on: citrate synthase in mitochondria isolated from lean (non-diabetic) ZDF rats; experiment: Residual citrate synthase activity in mitochondrial pellets (marker of inner membrane integrity); type: cell-based, rat
Protocol: An enzyme assay was then used to evaluate the mitochondrial pellets to determine the contents of the matrix protein citrate synthase in order to evaluate the integrity of the mitochondria after the respective incubations. Citrate synthase activity was determined according to the methods decscribed in Newsholme and Crabtree, J. Exp. Zoo. 239(2): 159-67 (1986). In brief, frozen mitochondrial pellets were resuspended in a reaction mixture containing 50 mM Tris-HCl (pH8.0), 0.1 mM acetyl coenzyme A and 0.2 mM 5,5′-dithiobis-(2-nitrobenzoic acid) (DTNB). Reactants were incubated for five minutes prior to measurement and the assay started by the addition of 5 mM oxaloacetate. Absorbance of DTNB was then followed at 412 nm and units were calculated relative to soluble protein using the biccichonic acid method (BCA, Pierce) with bovine serum albumin as standard.

[4] = tested on: electron transport chain complexes I to V of left ventricle mitochondria; details: rat, in vivo
Protocol: Male Wistar rats (starting body weight from about 200 to about 250 g) were maintained on Teklad TB 2108 (Harlan UK) rat chow and tap water ab libitum. At eight weeks the rats were randomized into two groups: control and diabetic (STZ). Rats were made diabetic by injection with 60 mg/kg STZ and the control rats were given a corresponding amount of 0.9% sodium chloride.
The control groups received Milli-Q water ab libitum during the corresponding period. At the end of the eleven week treatment period, rats were anaesthetized with isoflurane, the abdominal cavity was opened and a catheter inserted into the vena cava. Approximately 1 mL of blood was removed for future analysis and 10000 U/Kg heparin infused. […]
Fiber respiration was then measured in a respirometer at 30° C. at high resolution using Clark-type electrodes and integrated software that was used for data acquisition and analysis (DatLab 4, Oroboros, Oxygraph; Innsbruck, Austria). […] Respiratory rates (oxygen fluxes) were expressed as pmol O2. […]
Respiratory flux rates through complex I (GM2 and GM3), complexes I and II (GMS3) and II (S3) were determined to measure the intactness of the individual complexes (GM3 and S3), and to estimate maximal flux rates through the electron transport chain.

[5] = in the presence of 5 mM spermine

Structure (SMILES)	change in mitochondrial volume ([1]; 0-5 mM, no CaCl2, 30 minutes, diabetic or control mitochondria)	effect on swelling at concentrations above 0.625 mM ([1]; 150 μM CaCl2, mitochondria from obese and lean rats)	cytochrome c release into supernatant [2]	cytochrome c release on co-incubation with 5 mM spermine ([2]; 5 mM spermine plus test polyamine)	concentration dependence of diminished cytochrome c release ([2]; […] vs 5 mM, with 5 mM spermine)	residual citrate synthase activity ([3]; 5 mM alone, after 30 min)	citrate synthase activity in spermine treated mitochondria [3, 5]	relative potency in improving residual citrate synthase activity [3, 5]	change in mitochondrial volume [1]	effect on swelling at concentrations above 0.625 mM [1]	relative inhibition of Ca2+ induced swelling among the three polyamines [1]	incubation time to maximum release of cytochrome c ([2]; data not shown) [min]	residual citrate synthase activity ([3]; 5 mM alone)	residual citrate synthase activity ([3]; lower concentrations than 5 mM)	cytochrome C oxidase flux (TMPD plus ascorbate) [4]	respiration flux rates of control treated mitochondria [4]
NCCCCNCCCN [spermidine]	no detectable change in mitochondrial volume	continued to have a protective effect; also recorded: continue to protect mitochondria from swelling	caused cytochrome c release at 5 mM, albeit less than in the case of spermine	reduced, though to a lesser degree; also recorded: diminished cytochrome c release	less potent than when 5 mM was used	increased amounts of residual citrate synthase activity compared to control samples	improved citrate synthase activity, although not as effectively; also recorded: capable of improving residual citrate synthase activity	markedly less potent than triethylenetetramine dihydrochloride								
NCCCNCCCCNCCCN [spermine]			release of large amounts of cytochrome c						led to swelling of mitochondria	induced swelling; also recorded: appears to induce swelling	greatest inhibition of swelling	30	rapid loss of citrate synthase activity	less severe impact on the residual citrate synthase activity		
NCCNCCNCCN.O=C(O)CCC(=O)O.O=C(O)CCC(=O)O [triethylenetetramine disuccinate]															significant improvement in cytochrome C oxidase	No significant effect
